In brackets after ≈: the same amount, converted by molar mass. Activity calls are given as the source filed them. The rule behind the calls is not given here.
What was measured:
Assay type in all cases: functional
Escherichia coli [1] = test: Antibacterial activity against Escherichia coli by disc diffusion method
Pseudomonas aeruginosa [2] = test: Antibacterial activity against Pseudomonas aeruginosa by disc diffusion method
Staphylococcus aureus [3] = test: Antibacterial activity against Staphylococcus aureus by disc diffusion method
Bacillus subtilis [4] = test: Antibacterial activity against Bacillus subtilis by disc diffusion method
Escherichia coli [5] = test: Antibacterial activity against Escherichia coli NCIM 2688 measured after 8 hrs
Bacillus subtilis [6] = test: Antibacterial activity against Bacillus subtilis NCIM 2079 measured after 12 hrs
Staphylococcus aureus [7] = test: Antibacterial activity against Staphylococcus aureus NCIM 2010 measured after 12 hrs
[8] = system: Mycobacterium tuberculosis; test: Antimycobacterial activity against dormant stage of Mycobacterium tuberculosis H37Ra ATCC 25177 assessed as minimum inhibitory concentration by XTT assay
Pseudomonas aeruginosa [9] = test: Antibacterial activity against Pseudomonas aeruginosa NCIM […] measured after 8 hrs
[10] = system: Mycobacterium tuberculosis; test: Antimycobacterial activity against active stage of Mycobacterium tuberculosis H37Ra ATCC 25177 assessed as minimum inhibitory concentration by XTT assay
Aspergillus niger = test: Antifungal activity against Aspergillus niger
Aspergillus flavus = test: Antifungal activity against Aspergillus flavus

## COc1ccccc1N1C(=O)C2(C3=C(Nc4ccccc42)C(=O)CC(C)(C)C3)C2=C1CC(C)(C)CC2=O (stereo not drawn)
Escherichia coli [1]
  MIC: 175 µg/mL (≈ 352 µM)
Pseudomonas aeruginosa [2]
  MIC: 100 µg/mL (≈ 201 µM)
Staphylococcus aureus [3]
  MIC: 75 µg/mL (≈ 151 µM)
Bacillus subtilis [4]
  MIC: 75 µg/mL (≈ 151 µM)

## Cc1ccc(Cn2cc(CN3C(=O)C4(C(C#N)=C(N)Oc5cc(C)oc(=O)c54)c4cc(Cl)ccc43)nn2)cc1 (stereo not drawn)
Escherichia coli [5]
  MIC90: 2.65 µg/mL (≈ 4.9 µM)
Bacillus subtilis [6]
  MIC90: 7.19 µg/mL (≈ 13.3 µM)
Staphylococcus aureus [7]
  MIC90: 2.41 µg/mL (≈ 4.45 µM)
[8]
  MIC: 11.6 µg/mL (≈ 21.4 µM)
Pseudomonas aeruginosa [9]
  MIC90: 4.88 µg/mL (≈ 9.02 µM)
[10]
  MIC: > 50 µg/mL

## Cc1cc2c(c(=O)o1)C1(C(=O)N(Cc3cn(Cc4ccc(Cl)cc4)nn3)c3ccc(Br)cc31)C(C#N)=C(N)O2 (stereo not drawn)
Escherichia coli [5]
  MIC90: 2.75 µg/mL (≈ 4.54 µM)
Bacillus subtilis [6]
  MIC90: 5.27 µg/mL (≈ 8.7 µM)
Staphylococcus aureus [7]
  MIC90: 3.86 µg/mL (≈ 6.37 µM)
[8]
  MIC: 6.8 µg/mL (≈ 11.2 µM)
Pseudomonas aeruginosa [9]
  MIC90: 2.33 µg/mL (≈ 3.85 µM)
[10]
  MIC: 6.63 µg/mL (≈ 10.9 µM)

## CC(C)CC1NC2(C(=O)Nc3ccccc32)C(C(=O)c2ccc(F)cc2)C1c1ccc(Br)cc1 (stereo not drawn)
Aspergillus niger
  MIC: 30 µg/mL (≈ 57.5 µM)
Aspergillus flavus
  MIC: 20 µg/mL (≈ 38.4 µM)

## CO[C@H]1/C=C/O[C@@]2(C)Oc3c(C)c(O)c4c(O)c(c(/C=N/N5CCN(C)CC5)c(O)c4c3C2=O)NC(=O)/C(C)=C\C=C\[C@H](C)[C@H](O)[C@@H](C)[C@@H](O)[C@@H](C)[C@H](OC(C)=O)[C@@H]1C [RIFAMPIN]
[8]
  MIC: 0.75 µg/mL (≈ 0.911 µM)
[10]
  MIC: 0.51 µg/mL (≈ 0.62 µM)

## CC(C)CC1NC2(C(=O)Nc3ccccc32)C(C(=O)c2ccc(F)cc2)C1c1ccccc1 (stereo not drawn)
Aspergillus niger
  MIC: 20 µg/mL (≈ 45.2 µM)
Aspergillus flavus
  MIC: 20 µg/mL (≈ 45.2 µM)

## Cc1ccc(Cn2cc(CN3C(=O)C4(C(C#N)=C(N)Oc5cc(C)oc(=O)c54)c4ccccc43)nn2)cc1 (stereo not drawn)
Escherichia coli [5]
  MIC90: 1.97 µg/mL (≈ 3.89 µM)
Bacillus subtilis [6]
  MIC90: 2.85 µg/mL (≈ 5.63 µM)
Staphylococcus aureus [7]
  MIC90: 4.27 µg/mL (≈ 8.43 µM)
[8]
  MIC: 7.3 µg/mL (≈ 14.4 µM)
Pseudomonas aeruginosa [9]
  MIC90: 3.08 µg/mL (≈ 6.08 µM)
[10]
  MIC: 14 µg/mL (≈ 27.6 µM)

## CC1(C)CC(=O)C2=C(C1)OC(N)=C(C#N)C21C(=O)N(Cc2cn(Cc3ccc(Cl)cc3)nn2)c2ccc(Cl)cc21 (stereo not drawn)
Escherichia coli [5]
  MIC90: 1.78 µg/mL (≈ 3.09 µM)
Bacillus subtilis [6]
  MIC90: 1.14 µg/mL (≈ 1.98 µM)
Staphylococcus aureus [7]
  MIC90: 3.55 µg/mL (≈ 6.17 µM)
[8]
  MIC: 8.07 µg/mL (≈ 14 µM)
Pseudomonas aeruginosa [9]
  MIC90: 5.29 µg/mL (≈ 9.19 µM)
[10]
  MIC: > 50 µg/mL

## Cc1cc2c(c(=O)o1)C1(C(=O)N(Cc3cn(Cc4ccc(Cl)cc4)nn3)c3ccccc31)C(C#N)=C(N)O2 (stereo not drawn)
[8]
  MIC: 4.39 µg/mL (≈ 8.33 µM)
[10]
  MIC: 5.21 µg/mL (≈ 9.89 µM)

## CC1(C)CC(=O)C2=C(C1)N(c1ccccc1S)C(=O)C21C2=C(Nc3ccccc31)C(=O)CC(C)(C)C2 (stereo not drawn)
Escherichia coli [1]
  MIC: 188 µg/mL (≈ 376 µM)
Pseudomonas aeruginosa [2]
  MIC: 150 µg/mL (≈ 301 µM)
Staphylococcus aureus [3]
  MIC: 225 µg/mL (≈ 451 µM)
Bacillus subtilis [4]
  MIC: 2.5 µg/mL (≈ 5.01 µM)

## CC1(C)CC(=O)C2=C(C1)N(c1ccccn1)C(=O)C21C2=C(Nc3ccccc31)C(=O)CC(C)(C)C2 (stereo not drawn)
Escherichia coli [1]
  MIC: 62 µg/mL (≈ 133 µM)
Pseudomonas aeruginosa [2]
  MIC: inactive
Staphylococcus aureus [3]
  MIC: 125 µg/mL (≈ 267 µM)
Bacillus subtilis [4]
  MIC: 50 µg/mL (≈ 107 µM)

## CC(C)CC1NC2(C(=O)Nc3ccccc32)C(C(=O)c2ccc(F)cc2)C1c1ccc(Cl)cc1 (stereo not drawn)
Aspergillus niger
  MIC: 20 µg/mL (≈ 41.9 µM)
Aspergillus flavus
  MIC: 20 µg/mL (≈ 41.9 µM)

## CC1(C)CC(=O)C2=C(C1)OC(N)=C(C#N)C21C(=O)N(Cc2cn(Cc3ccc(Cl)cc3)nn2)c2ccc(Br)cc21 (stereo not drawn)
Escherichia coli [5]
  MIC90: 2.86 µg/mL (≈ 4.61 µM)
Bacillus subtilis [6]
  MIC90: 3.18 µg/mL (≈ 5.13 µM)
Staphylococcus aureus [7]
  MIC90: 1.09 µg/mL (≈ 1.76 µM)
[8]
  MIC: 10.6 µg/mL (≈ 17.1 µM)
Pseudomonas aeruginosa [9]
  MIC90: 1.57 µg/mL (≈ 2.53 µM)
[10]
  MIC: > 50 µg/mL

## Cc1cc2c(c(=O)o1)C1(C(=O)N(Cc3cn(Cc4ccc(Cl)cc4)nn3)c3ccc(Cl)cc31)C(C#N)=C(N)O2 (stereo not drawn)
[8]
  MIC: 4.81 µg/mL (≈ 8.57 µM)
[10]
  MIC: 5.39 µg/mL (≈ 9.6 µM)

## NC[C@H]1O[C@H](O[C@H]2[C@H](O)[C@@H](O[C@H]3O[C@H](CO)[C@@H](O)[C@H](N)[C@H]3O)[C@H](N)C[C@@H]2N)[C@H](O)[C@@H](O)[C@@H]1O [KANAMYCIN]
Escherichia coli [5]
  MIC90: 1.62 µg/mL (≈ 3.34 µM)
Bacillus subtilis [6]
  MIC90: 1.35 µg/mL (≈ 2.79 µM)
Staphylococcus aureus [7]
  MIC90: > 30 µg/mL
Pseudomonas aeruginosa [9]
  MIC90: 0.49 µg/mL (≈ 1.01 µM)

## CC1(C)CC(=O)C2=C(C1)N(c1c(Br)cc(Br)cc1Br)C(=O)C21C2=C(Nc3ccccc31)C(=O)CC(C)(C)C2 (stereo not drawn)
Escherichia coli [1]
  MIC: 37.5 µg/mL (≈ 53.3 µM)
Pseudomonas aeruginosa [2]
  MIC: 50 µg/mL (≈ 71.1 µM)
Staphylococcus aureus [3]
  MIC: 100 µg/mL (≈ 142 µM)
Bacillus subtilis [4]
  MIC: 62.5 µg/mL (≈ 88.9 µM)

## Cc1ccc(Cn2cc(CN3C(=O)C4(C(C#N)=C(N)OC5=C4C(=O)CC(C)(C)C5)c4cc(Br)ccc43)nn2)cc1 (stereo not drawn)
[8]
  MIC: 8.89 µg/mL (≈ 14.8 µM)
[10]
  MIC: 29.2 µg/mL (≈ 48.8 µM)

## CC1(C)CC(=O)C2=C(C1)N(c1ccccc1F)C(=O)C21C2=C(Nc3ccccc31)C(=O)CC(C)(C)C2 (stereo not drawn)
Escherichia coli [1]
  MIC: 37.5 µg/mL (≈ 77.4 µM)
Pseudomonas aeruginosa [2]
  MIC: 50 µg/mL (≈ 103 µM)
Staphylococcus aureus [3]
  MIC: inactive
Bacillus subtilis [4]
  MIC: 75 µg/mL (≈ 155 µM)

Reference: ChEMBL document CHEMBL5226286, “The application of isatin-based multicomponent-reactions in the quest for new bioactive and druglike molecules” (Eur J Med Chem, 2021)
